Source: the supplement of paper PMC6315032

Experiments:
Assay in all cases: apparent dissociation constant (pKDapp, Kinobeads competition, Cheng-Prusoff corrected) (-log10 M); higher = tighter binding
PI4KA = PI4KA (UniProt P42356)
MAPKAPK3 = MAPKAPK3 (UniProt Q16644); conditions: affinity matrix / lysate: Kinobeads, mixed HEK293/K-562/placenta lysate
NEK1 = NEK1 (UniProt Q96PY6); conditions: affinity matrix / lysate: Kinobeads, mixed HEK293/K-562/placenta lysate
PIP4K2B = PIP4K2B (UniProt P78356); conditions: affinity matrix / lysate: Kinobeads, mixed HEK293/K-562/placenta lysate
MAP4K3 = MAP4K3 (UniProt Q8IVH8); conditions: affinity matrix / lysate: Kinobeads, mixed HEK293/K-562/placenta lysate
BMP2K = BMP2K (UniProt Q9NSY1); conditions: affinity matrix / lysate: Kinobeads, mixed HEK293/K-562/placenta lysate
PLK1 = PLK1 (UniProt P53350); conditions: affinity matrix / lysate: Kinobeads, mixed HEK293/K-562/placenta lysate
TGFBR2 = TGFBR2 (UniProt P37173); conditions: affinity matrix / lysate: Kinobeads, mixed HEK293/K-562/placenta lysate
PRKX = PRKX (UniProt P51817); conditions: affinity matrix / lysate: Kinobeads, mixed HEK293/K-562/placenta lysate
MAST2 = MAST2 (UniProt Q6P0Q8); conditions: affinity matrix / lysate: Kinobeads, mixed HEK293/K-562/placenta lysate
EPHB1 = EPHB1 (UniProt P54762); conditions: affinity matrix / lysate: Kinobeads, mixed HEK293/K-562/placenta lysate
EPHB3 = EPHB3 (UniProt P54753); conditions: affinity matrix / lysate: Kinobeads, mixed HEK293/K-562/placenta lysate
PRKAA2 = PRKAA2 (UniProt P54646); conditions: affinity matrix / lysate: Kinobeads, mixed HEK293/K-562/placenta lysate
PAK4 = PAK4 (UniProt O96013); conditions: affinity matrix / lysate: Kinobeads, mixed HEK293/K-562/placenta lysate
FGR = FGR (UniProt P09769); conditions: affinity matrix / lysate: Kinobeads, mixed HEK293/K-562/placenta lysate
CABC1 = CABC1 (UniProt Q8NI60); conditions: affinity matrix / lysate: Kinobeads, mixed HEK293/K-562/placenta lysate
TAOK1 = TAOK1 (UniProt Q7L7X3); conditions: affinity matrix / lysate: Kinobeads, mixed HEK293/K-562/placenta lysate
ULK3 = ULK3 (UniProt Q6PHR2); conditions: affinity matrix / lysate: Kinobeads, mixed HEK293/K-562/placenta lysate
FER = FER (UniProt P16591); conditions: affinity matrix / lysate: Kinobeads, mixed HEK293/K-562/placenta lysate
EPHA3 = EPHA3 (UniProt P29320); conditions: affinity matrix / lysate: Kinobeads, mixed HEK293/K-562/placenta lysate
RPS6KA1 = RPS6KA1 (UniProt Q15418); conditions: affinity matrix / lysate: Kinobeads, mixed HEK293/K-562/placenta lysate
BMPR1A = BMPR1A (UniProt P36894); conditions: affinity matrix / lysate: Kinobeads, mixed HEK293/K-562/placenta lysate
CSNK2A1 = CSNK2A1 (UniProt P68400)
MARK3 = MARK3 (UniProt P27448); conditions: affinity matrix / lysate: Kinobeads, mixed HEK293/K-562/placenta lysate
GAK = GAK (UniProt O14976); conditions: affinity matrix / lysate: Kinobeads, mixed HEK293/K-562/placenta lysate
RPS6KA2 = RPS6KA2 (UniProt Q15349); conditions: affinity matrix / lysate: Kinobeads, mixed HEK293/K-562/placenta lysate
MAP2K6 = MAP2K6 (UniProt P52564); conditions: affinity matrix / lysate: Kinobeads, mixed HEK293/K-562/placenta lysate
CSK = CSK (UniProt P41240); conditions: affinity matrix / lysate: Kinobeads, mixed HEK293/K-562/placenta lysate
ACVR2B = ACVR2B (UniProt Q13705); conditions: affinity matrix / lysate: Kinobeads, mixed HEK293/K-562/placenta lysate
CDK7 = CDK7 (UniProt P50613); conditions: affinity matrix / lysate: Kinobeads, mixed HEK293/K-562/placenta lysate
MAP3K7 = MAP3K7 (UniProt O43318); conditions: affinity matrix / lysate: Kinobeads, mixed HEK293/K-562/placenta lysate
TAOK2 = TAOK2 (UniProt Q9UL54); conditions: affinity matrix / lysate: Kinobeads, mixed HEK293/K-562/placenta lysate
CHUK = CHUK (UniProt O15111); conditions: affinity matrix / lysate: Kinobeads, mixed HEK293/K-562/placenta lysate
[1] = affinity matrix / lysate: Kinobeads, mixed HEK293/K-562/placenta lysate
[2] = affinity matrix / lysate: Lipid Kinobeads, mixed HeLa/Jurkat/K-562 lysate

Measured: apparent dissociation constant (-log10 M)

CSNK2A1, sequence (P68400 whole entry, looked up): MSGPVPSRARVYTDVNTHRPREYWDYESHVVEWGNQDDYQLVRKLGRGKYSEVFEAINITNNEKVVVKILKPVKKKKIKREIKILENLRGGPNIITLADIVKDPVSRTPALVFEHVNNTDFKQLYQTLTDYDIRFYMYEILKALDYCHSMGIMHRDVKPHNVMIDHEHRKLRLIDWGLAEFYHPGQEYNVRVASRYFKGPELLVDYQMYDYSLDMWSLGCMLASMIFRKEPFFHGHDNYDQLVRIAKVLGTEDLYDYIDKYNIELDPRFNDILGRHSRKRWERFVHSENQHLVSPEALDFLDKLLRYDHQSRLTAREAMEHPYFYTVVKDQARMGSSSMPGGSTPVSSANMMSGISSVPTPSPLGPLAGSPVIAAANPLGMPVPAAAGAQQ
PI4KA, sequence (P42356 whole entry, looked up): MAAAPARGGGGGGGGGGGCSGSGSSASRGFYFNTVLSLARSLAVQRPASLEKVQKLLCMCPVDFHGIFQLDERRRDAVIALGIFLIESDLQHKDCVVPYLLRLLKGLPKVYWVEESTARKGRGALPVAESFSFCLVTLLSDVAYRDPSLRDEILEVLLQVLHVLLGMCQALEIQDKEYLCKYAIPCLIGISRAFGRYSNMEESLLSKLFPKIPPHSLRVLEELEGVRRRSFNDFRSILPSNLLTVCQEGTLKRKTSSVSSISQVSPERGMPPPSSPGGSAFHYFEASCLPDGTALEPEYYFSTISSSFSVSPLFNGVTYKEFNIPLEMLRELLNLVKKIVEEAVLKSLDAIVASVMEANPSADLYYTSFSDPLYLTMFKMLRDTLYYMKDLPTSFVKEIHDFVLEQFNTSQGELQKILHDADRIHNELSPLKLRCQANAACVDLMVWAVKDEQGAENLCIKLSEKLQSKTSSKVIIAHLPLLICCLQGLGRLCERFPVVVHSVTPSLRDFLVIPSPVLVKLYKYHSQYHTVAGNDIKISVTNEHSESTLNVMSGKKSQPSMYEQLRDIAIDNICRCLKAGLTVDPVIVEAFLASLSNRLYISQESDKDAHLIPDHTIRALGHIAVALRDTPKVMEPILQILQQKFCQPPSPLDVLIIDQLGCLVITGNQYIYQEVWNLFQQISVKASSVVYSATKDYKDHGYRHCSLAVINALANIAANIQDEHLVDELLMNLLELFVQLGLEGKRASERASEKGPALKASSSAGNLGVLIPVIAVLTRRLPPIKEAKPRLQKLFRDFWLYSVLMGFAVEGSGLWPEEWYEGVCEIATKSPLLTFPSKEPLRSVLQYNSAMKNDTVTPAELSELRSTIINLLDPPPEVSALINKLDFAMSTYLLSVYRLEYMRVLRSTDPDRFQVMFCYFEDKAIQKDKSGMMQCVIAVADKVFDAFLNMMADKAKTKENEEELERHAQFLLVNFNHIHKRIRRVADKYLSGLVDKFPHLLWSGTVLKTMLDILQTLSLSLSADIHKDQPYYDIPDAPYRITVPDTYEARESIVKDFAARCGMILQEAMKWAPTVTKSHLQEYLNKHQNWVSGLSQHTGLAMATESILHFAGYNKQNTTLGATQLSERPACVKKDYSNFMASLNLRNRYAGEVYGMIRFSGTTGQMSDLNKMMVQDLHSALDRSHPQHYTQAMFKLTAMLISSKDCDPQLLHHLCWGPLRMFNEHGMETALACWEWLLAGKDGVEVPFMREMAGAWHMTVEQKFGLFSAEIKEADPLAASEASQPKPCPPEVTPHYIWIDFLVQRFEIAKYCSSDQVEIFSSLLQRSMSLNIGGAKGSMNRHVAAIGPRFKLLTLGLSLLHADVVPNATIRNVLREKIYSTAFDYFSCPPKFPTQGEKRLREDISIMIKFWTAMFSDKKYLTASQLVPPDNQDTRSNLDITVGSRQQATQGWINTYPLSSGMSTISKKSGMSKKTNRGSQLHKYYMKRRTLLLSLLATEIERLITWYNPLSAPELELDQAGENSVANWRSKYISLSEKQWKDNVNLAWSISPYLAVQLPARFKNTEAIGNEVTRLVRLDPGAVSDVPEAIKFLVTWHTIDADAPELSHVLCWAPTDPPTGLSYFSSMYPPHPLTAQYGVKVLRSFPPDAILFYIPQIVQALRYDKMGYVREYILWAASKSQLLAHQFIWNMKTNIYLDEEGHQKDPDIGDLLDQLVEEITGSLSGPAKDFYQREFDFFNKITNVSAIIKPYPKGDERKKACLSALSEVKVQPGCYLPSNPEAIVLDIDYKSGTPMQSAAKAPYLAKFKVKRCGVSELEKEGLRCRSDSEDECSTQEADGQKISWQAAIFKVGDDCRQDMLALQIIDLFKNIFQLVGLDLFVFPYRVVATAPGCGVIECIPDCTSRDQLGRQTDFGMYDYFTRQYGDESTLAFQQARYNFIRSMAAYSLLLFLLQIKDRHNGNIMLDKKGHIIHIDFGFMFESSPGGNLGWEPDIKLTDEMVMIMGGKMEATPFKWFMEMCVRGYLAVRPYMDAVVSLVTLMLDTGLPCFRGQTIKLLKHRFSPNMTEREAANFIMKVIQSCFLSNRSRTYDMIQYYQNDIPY
NEK1, sequence (Q96PY6 whole entry): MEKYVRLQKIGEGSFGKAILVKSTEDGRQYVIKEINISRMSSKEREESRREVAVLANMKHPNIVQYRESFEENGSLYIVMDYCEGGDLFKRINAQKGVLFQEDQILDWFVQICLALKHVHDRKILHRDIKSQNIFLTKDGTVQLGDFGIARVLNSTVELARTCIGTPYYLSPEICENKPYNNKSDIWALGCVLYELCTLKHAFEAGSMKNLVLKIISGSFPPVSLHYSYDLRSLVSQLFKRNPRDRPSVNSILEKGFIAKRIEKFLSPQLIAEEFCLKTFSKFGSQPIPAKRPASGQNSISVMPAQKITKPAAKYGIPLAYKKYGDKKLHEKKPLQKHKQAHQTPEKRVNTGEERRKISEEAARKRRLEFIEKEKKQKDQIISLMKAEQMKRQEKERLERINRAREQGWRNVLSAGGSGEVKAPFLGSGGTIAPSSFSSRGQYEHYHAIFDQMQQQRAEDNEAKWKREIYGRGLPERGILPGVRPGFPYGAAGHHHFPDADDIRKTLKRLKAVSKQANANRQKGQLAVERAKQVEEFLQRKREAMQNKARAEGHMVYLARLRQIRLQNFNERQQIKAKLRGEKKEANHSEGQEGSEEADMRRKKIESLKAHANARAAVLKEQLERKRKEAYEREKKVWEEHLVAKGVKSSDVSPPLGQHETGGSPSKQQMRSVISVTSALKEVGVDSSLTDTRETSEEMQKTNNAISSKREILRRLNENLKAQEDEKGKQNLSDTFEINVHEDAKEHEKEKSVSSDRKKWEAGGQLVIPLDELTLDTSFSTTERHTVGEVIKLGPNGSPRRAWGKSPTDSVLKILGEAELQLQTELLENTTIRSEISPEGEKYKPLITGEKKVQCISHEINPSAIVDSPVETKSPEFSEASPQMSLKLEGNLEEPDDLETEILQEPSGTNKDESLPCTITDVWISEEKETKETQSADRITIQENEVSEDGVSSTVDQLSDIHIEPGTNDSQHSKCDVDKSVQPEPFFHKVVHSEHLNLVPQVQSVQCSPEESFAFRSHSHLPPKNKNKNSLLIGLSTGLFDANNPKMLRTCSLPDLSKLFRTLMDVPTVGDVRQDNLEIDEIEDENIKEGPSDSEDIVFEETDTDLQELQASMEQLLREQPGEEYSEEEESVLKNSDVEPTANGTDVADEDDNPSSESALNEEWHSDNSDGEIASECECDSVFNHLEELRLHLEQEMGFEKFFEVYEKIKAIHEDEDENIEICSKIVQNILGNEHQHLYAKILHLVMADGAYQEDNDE
CHUK, sequence (O15111 whole entry): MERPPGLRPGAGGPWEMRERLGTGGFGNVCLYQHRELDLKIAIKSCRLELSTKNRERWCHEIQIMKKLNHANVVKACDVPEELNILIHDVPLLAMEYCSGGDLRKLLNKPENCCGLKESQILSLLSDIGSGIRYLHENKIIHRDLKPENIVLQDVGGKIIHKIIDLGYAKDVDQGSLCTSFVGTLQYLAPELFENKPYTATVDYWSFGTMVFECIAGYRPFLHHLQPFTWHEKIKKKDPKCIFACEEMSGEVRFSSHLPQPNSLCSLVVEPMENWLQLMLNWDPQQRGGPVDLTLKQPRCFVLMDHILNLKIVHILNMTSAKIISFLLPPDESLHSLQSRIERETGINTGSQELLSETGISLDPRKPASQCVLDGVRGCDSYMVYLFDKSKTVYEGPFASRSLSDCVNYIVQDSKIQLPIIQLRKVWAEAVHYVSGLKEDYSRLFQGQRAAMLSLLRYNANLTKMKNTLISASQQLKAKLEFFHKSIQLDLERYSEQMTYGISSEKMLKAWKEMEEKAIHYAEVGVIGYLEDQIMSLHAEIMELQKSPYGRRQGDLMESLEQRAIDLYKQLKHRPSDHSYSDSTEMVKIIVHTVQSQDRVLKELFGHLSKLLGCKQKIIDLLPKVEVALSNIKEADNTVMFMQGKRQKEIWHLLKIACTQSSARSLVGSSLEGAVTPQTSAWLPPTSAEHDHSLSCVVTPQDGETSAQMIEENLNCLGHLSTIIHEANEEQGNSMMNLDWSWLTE
CDK7, sequence (P50613 whole entry): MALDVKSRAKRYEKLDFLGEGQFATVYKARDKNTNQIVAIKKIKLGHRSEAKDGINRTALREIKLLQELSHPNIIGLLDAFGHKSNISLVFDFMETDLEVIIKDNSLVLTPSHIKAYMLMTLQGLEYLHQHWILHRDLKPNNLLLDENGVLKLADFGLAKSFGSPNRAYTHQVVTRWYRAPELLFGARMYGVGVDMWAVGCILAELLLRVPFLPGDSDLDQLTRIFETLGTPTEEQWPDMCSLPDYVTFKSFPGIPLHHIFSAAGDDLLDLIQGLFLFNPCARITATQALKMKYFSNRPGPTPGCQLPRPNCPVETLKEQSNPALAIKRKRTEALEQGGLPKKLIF

COc1ccc(-c2ccc3c(N4CCOC[C@@H]4C)nc(N4CCOC[C@@H]4C)nc3n2)cc1CO [AZD8055]
< 6: PI4KA; [1] | PI4KA; [2] | MAPKAPK3 | NEK1 | PIP4K2B | MAP4K3 | BMP2K | PLK1 | TGFBR2 | PRKX | MAST2 | EPHB1 | EPHB3 | PRKAA2 | PAK4 | FGR | CABC1 | TAOK1 | ULK3 | FER | EPHA3 | RPS6KA1 | BMPR1A | CSNK2A1; [1] | CSNK2A1; [2] | MARK3 | GAK | RPS6KA2 | MAP2K6 | CSK | ACVR2B | CDK7 | MAP3K7 | TAOK2 | CHUK

CCNC(=O)Nc1ccc(-c2nc(N3CCOC[C@@H]3C)c3c(n2)C(C)(C)S(=O)(=O)C3)cc1 [CZ415]
< 6: PI4KA; [2] | MAPKAPK3 | NEK1 | PIP4K2B | MAP4K3 | BMP2K | PLK1 | TGFBR2 | PRKX | MAST2 | EPHB1 | EPHB3 | PRKAA2 | PAK4 | FGR | CABC1 | TAOK1 | ULK3 | FER | EPHA3 | RPS6KA1 | BMPR1A | CSNK2A1; [1] | CSNK2A1; [2] | MARK3 | GAK | RPS6KA2 | MAP2K6 | CSK | ACVR2B | CDK7 | MAP3K7 | TAOK2 | CHUK
